Non-standard residues stand in square brackets, D forms with d. Residues, ends and D or L forms follow the SMILES beside them. *: point of attachment. FITC = O=C1OC2(c3ccc(O)cc3Oc3cc(O)ccc32)c2ccc(NC(=S)*)cc21; Ahx = NCCCCCC(=O)O
Legend:
GBM-6 cells = experiment: CellTitre-Glo cell viability assay, GBM-6; type: cell-based, human; conditions: BTP-7 50 µM, 48 hrs, nwell = 3
GBM-6 neurospheres = experiment: Collagen cell invasion assay; type: cell-based, human; conditions: BTP-7 50 µM, n = 3
[1] = target: T1, recombinant dg-Bcan protein (deglycosylated recombinant human brevican) (Homo sapiens, UniProt Q96GW7); experiment: Octet binding kinetic analysis; conditions: for Rmax (maximal response in response unit): Octet steady state analysis, one site specific binding fit
T1 sequence (Q96GW7 23-911): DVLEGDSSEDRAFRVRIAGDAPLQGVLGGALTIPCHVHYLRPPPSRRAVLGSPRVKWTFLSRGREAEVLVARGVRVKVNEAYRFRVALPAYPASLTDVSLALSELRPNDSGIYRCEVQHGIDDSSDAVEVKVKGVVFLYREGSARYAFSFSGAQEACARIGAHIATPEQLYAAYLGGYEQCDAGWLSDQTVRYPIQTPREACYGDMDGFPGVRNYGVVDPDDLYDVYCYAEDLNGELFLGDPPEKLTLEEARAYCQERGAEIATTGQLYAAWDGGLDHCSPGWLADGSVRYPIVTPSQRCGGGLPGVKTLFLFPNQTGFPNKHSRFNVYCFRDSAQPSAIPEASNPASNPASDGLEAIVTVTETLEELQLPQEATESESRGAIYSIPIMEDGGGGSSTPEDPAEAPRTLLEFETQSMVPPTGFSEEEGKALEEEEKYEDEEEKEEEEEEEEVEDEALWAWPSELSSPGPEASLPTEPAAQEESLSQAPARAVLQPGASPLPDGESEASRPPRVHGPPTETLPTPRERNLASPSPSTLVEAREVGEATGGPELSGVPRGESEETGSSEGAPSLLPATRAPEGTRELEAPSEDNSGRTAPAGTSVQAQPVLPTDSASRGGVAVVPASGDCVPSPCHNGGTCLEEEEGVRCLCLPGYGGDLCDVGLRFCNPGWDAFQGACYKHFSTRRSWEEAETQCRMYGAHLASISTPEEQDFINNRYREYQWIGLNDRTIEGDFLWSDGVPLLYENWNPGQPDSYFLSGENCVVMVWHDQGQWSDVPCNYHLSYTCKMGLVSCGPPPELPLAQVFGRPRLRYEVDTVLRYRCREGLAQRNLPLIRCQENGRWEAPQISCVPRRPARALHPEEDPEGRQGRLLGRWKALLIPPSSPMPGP

SMILES	effect on GBM-6 proliferation (GBM-6 cells)	effect on GBM-6 invasion in collagen (GBM-6 neurospheres)	Rmax (maximal response in response unit) [1]	Kd [1] [µM]
CC(C)[C@@H](NC(=O)[C@@H](Cc1c[nH]cn1)NC(=O)CNC(=O)[C@@H](Cc1c[nH]c2ccccc12)NC(=O)[C@@H](CCCCN)NC(=O)[C@H](N)[C@H](C)O)C(=O)N[C@H](CC(N)=O)C(=O)N[C@H](CCCCN)C(N)=O [BTP-7]	not affected	not affected	0.307	–
CC[C@@H](C)[C@@H](NC(=O)[C@@H](C)NC(=O)[C@@H](CCCNC(=N)N)NC(=O)[C@@H](CCC(N)=O)NC(=O)[C@@H](CCCNC(=N)N)NC(=O)[C@@H](CCCNC(=N)N)NC(=O)[C@@H](CC(=O)O)NC(=O)[C@@H](C)N)C(N)=O [BTP-9] (H-[dA][dD][dR][dR][dQ][dR][dA][dI]-NH2; N-terminus and C-terminus assumed)	–	–	0.338	–
CC(C)[C@@H](NC(=O)[C@@H](Cc1c[nH]cn1)NC(=O)CNC(=O)[C@@H](Cc1c[nH]c2ccccc12)NC(=O)[C@@H](CCCCN)NC(=O)[C@H](N)[C@H](C)O)C(=O)N[C@H](CC(N)=O)C(=O)N[C@H](CCCCN)C(=O)NCCCCCC(=O)N[C@@H](CCCCNC(=S)Nc1ccc2c(c1)C(=O)OC21c2ccc(O)cc2Oc2cc(O)ccc21)C(N)=O [Fluorescein-conjugated BTP-7] (H-[dT][dK][dW]G[dH][dV][dN][dK][Ahx]K(FITC)-NH2)	–	–	–	3.8
